{
  "source": "patent US20170290821A1",
  "about": "(priority 2014, published 2017)",
  "key": {"[1]": {"test_system": "HEK293 cells or A549 cells", "experiment": "Cell viability with inhibitors (CellTiter-Glo, Example 2), cell line not specified", "assay_type": "cell-based, human", "conditions": "for cell viability: 48 hours", "experimental": "Specifically, HEK293 cells or A549 cells were infected with an influenza virus with an MOI of 0.001. Cells 1 hour after the infection were washed and then cultured in a culture solution containing inhibitors, a DMSO solution (final concentration: 1 volume %) was used as a control instead of the inhibitors. […] In addition, a cell viability (%) was calculated using a CellTiter-Glo assay system (commercially available from Promega Corporation) according to the appended instructions. The number of cells cultured in a medium containing the inhibitors with respect to the number of living cells in cells cultured in a medium containing the control (the DMSO solution) was calculated as the cell viability (%)."}, "influenza virus": {"test_system": "influenza virus", "assay_type": "cell-based"}, "A549 cells [2]": {"test_system": "A549 cells", "experiment": "Cell viability with inhibitors (CellTiter-Glo, Example 2), A549", "conditions": "0.2 μM", "experimental": "(§3) In addition, a cell viability (%) was calculated using a CellTiter-Glo assay system (commercially available from Promega Corporation) according to the appended instructions. The number of cells cultured in a medium containing the inhibitors with respect to the number of living cells in cells cultured in a medium containing the control (the DMSO solution) was calculated as the cell viability (%)."}, "[3]": {"target": "T1, adenine nucleotide transporter (ANT) (Homo sapiens, UniProt P05141)", "T1 sequence (P05141 1-298)": "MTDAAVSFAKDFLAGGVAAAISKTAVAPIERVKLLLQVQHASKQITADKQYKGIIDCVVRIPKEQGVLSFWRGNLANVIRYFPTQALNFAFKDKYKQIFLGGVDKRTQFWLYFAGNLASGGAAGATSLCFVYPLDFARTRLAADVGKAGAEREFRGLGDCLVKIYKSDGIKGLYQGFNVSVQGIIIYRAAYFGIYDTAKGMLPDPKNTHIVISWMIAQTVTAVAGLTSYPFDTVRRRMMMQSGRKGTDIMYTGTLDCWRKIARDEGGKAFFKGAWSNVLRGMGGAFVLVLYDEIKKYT", "conditions": "cited from earlier work"}, "A549 cells [4]": {"test_system": "A549 cells", "experimental": "as §3"}, "[5]": {"experiment": "Cytotoxicity test (Cell Counting Kit-8), A549", "assay_type": "cell-based", "conditions": "human, A549 cells, read-out: CC50 (50% cytotoxicity concentration) (converted)"}, "[6]": {"experiment": "Cytotoxicity test (Cell Counting Kit-8), HEK293", "assay_type": "cell-based, human", "conditions": "human, 293 (HEK293) cells, read-out: CC50 (50% cytotoxicity concentration) (converted)", "protocol": "(§1) First, as test compound solutions, test compounds were prepared in 1% dimethylsulfoxide-containing MEMs so that a final concentration was 1000, 100, 10, 1, 0.1, 0.01, or 0.001 μM.\n(§2) Cell fluids in which MDCK cells, A549 cells, and HEK293 cells were prepared at concentrations of 6.25×10^5 cells/mL, 2.5×10^6 cells/mL, and 1.25×10^5 cells/mL in minimum essential mediums (MEMs) were added to a 96-well plate at 0.1 ml/well and the cells were seeded. The cells in the 96-well plate were cultured in a carbon dioxide incubator at 37° C. and washed with MEM the day after the seeding date. In the washed cells in the 96-well plate, 0.1 mL of each test compound solution was added to three wells for each concentration and the cells in the 96-well plate were then cultured in a carbon dioxide incubator at 37° C. for 48 hours. After the culture, a Cell Counting Kit-8 solution (commercially available from Dojindo Molecular Technologies, Inc.) was added to each well at 10 μL and culture was additionally performed at 37° C. for several hours. After the culture, an absorbance at 450 nm of a solution of each well in the 96-well plate was measured using a microplate reader. An absorbance value when a solvent (1% dimethylsulfoxide-containing MEM) was added in place of the test compound was set to 100% at which the whole cells survived. A final concentration value of the test compound when an absorbance was 50% was calculated as a 50% cytotoxicity concentration (CC50 value)."}, "HEK293 cells": {"test_system": "HEK293 cells", "experiment": "Cytotoxicity test (Cell Counting Kit-8), HEK293", "assay_type": "cell-based, human", "conditions": "293 (HEK293) cells, 48 hours", "protocol": "as §1, §2"}, "[7]": {"experiment": "Cytotoxicity test (Cell Counting Kit-8), MDCK", "assay_type": "cell-based, canine", "conditions": "dog, MDCK cells, read-out: CC50 (50% cytotoxicity concentration) (converted)", "protocol": "as §1\nas §2, with “A final concentration value of the test compound when an absorbance was 50% was calculated as a 50% cytotoxicity concentration (CC50 value).” left out"}},
  "note": "pKi: −log10 of the molar value. Where a name gives a salt, the structure may show the parent alone. Read-outs that look alike come from different tables or passages of the source.",
  "data": [
    {"compound": "CC(=O)C(C)=NO", "note": "[2,3-Butanedione 2-Monoxime]", "values": [
      {"measurement": "cell viability", "setting": "[1]; 30 mM", "value": "significantly reduced"},
      {"measurement": "anti-influenza virus effect", "setting": "influenza virus", "value": "had an anti-influenza virus effect"}
    ]},
    {"compound": "CC(C)C[C@H](NC(=O)[C@H](Cc1ccccc1)NC(=O)c1cnccn1)B(O)O", "note": "[Bortezomib]", "values": [
      {"measurement": "virus titer reduced by a common logarithmic value", "setting": "influenza virus; 0.2 μM, A549 cells, MOI 0.001, 48 hours", "value": 4, "unit": "common logarithmic value"},
      {"measurement": "cytotoxicity", "setting": "A549 cells [2]", "value": "without showing severe cytotoxicity"}
    ]},
    {"compound": "C=C1[C@@H]2CC[C@H]3[C@]4(C)C[C@H](O[C@@H]5O[C@H](CO)[C@@H](OS(=O)(=O)O)[C@H](OS(=O)(=O)O)[C@H]5OC(=O)CC(C)C)CC(C(=O)O)(C(=O)O)[C@H]4CC[C@]3(C2)[C@H]1O", "note": "[Carboxyatractyloside]", "values": [
      {"measurement": "pKi", "setting": "[3]", "value": "> 8.00"}
    ]},
    {"compound": "COc1cc2c(c(OC)c1OC)-c1ccc(OC)c(=O)cc1[C@@H](NC(C)=O)CC2", "note": "[Colchicine]", "values": [
      {"measurement": "cytotoxicity", "setting": "A549 cells [4]", "value": "without showing severe cytotoxicity"},
      {"measurement": "virus titer reduced by a common logarithmic value", "setting": "influenza virus", "value": 2, "unit": "common logarithmic value"}
    ]},
    {"compound": "N#C/C(=C\\c1ccc(O)c(O)c1)C(=O)NCc1ccccc1", "note": "[Compound J4, (E)-N-benzyl-2-cyano-3-(3,4-dihydroxyphenyl)acrylamide]", "values": [
      {"measurement": "CC50 at 48 h", "setting": "[5]", "value": 2690, "unit": "µM"}
    ]},
    {"compound": "O=C(Nc1c[nH]nc1-c1nc2cc(CN3CCOCC3)ccc2[nH]1)NC1CC1", "note": "[Compound J7, 1-cyclopropyl-3-(3-(5-(morpholinomethyl)-1H-benzo[d]imidazol-2-yl)-1H-pyrazol-4-yl) urea]", "values": [
      {"measurement": "CC50 at 48 h", "setting": "[5]", "value": "> 316", "unit": "µM"}
    ]},
    {"compound": "N#CCNC(=O)c1ccc(-c2ccnc(Nc3ccc(N4CCOCC4)cc3)n2)cc1", "note": "[Compound J8, N-(cyanomethyl)-4-(2-(4-morpholinophenylamino)pyrimidin-4-yl)benzamide]", "values": [
      {"measurement": "CC50 at 48 h", "setting": "[6]; HEK293 cells", "value": "> 316", "unit": "µM"}
    ]},
    {"compound": "CN1CCN(c2cccc(Nc3nc4c(-c5ccc(S(C)(=O)=O)cc5)cccn4n3)c2)CC1", "note": "[Compound J11]", "values": [
      {"measurement": "CC50 (50% cytotoxicity concentration)", "setting": "HEK293 cells", "value": ">5.5 log10, nM"}
    ]},
    {"compound": "Fc1cc(-c2cccc3ncc(-c4cnn(C5CCNCC5)c4)nc23)cc(F)c1CN1CCOCC1", "note": "[Compound J13, 8-(3,5-difluoro-4-(morpholinomethyl)phenyl)-2-(1-(piperidin-4-yl)-1H-pyrazol-4-yl)qui noxaline]", "values": [
      {"measurement": "CC50 at 48 h", "setting": "[6]; HEK293 cells", "value": 20.9, "unit": "µM"}
    ]},
    {"compound": "CC(C)N(CCC(=O)c1ccc2ccccc2c1)Cc1ccccc1", "note": "[Compound J15, 1-propanone, 3-[(1-methylethyl)(phenylmethyl)amino]-1-(2-naphthalenyl)-, hydrochloride (1:1)]", "values": [
      {"measurement": "CC50 at 48 h", "setting": "[6]; HEK293 cells", "value": 47.9, "unit": "µM"}
    ]},
    {"compound": "O=C(Nc1nc2cccc(-c3ccc(CN4CCS(=O)(=O)CC4)cc3)n2n1)C1CC1", "note": "[Compound J19, N-[5-[4-[(1,1-dioxido-4-thiomorpholinyl)methyl]phenyl][1,2,4]triazolo[1,5-a]pyridin-2-yl]cyclopropanccarboxamidc]", "values": [
      {"measurement": "CC50 at 48 h", "setting": "[5]", "value": "> 316", "unit": "µM"},
      {"measurement": "CC50 at 48 h", "setting": "[7]", "value": "> 316", "unit": "µM"},
      {"measurement": "CC50 at 48 h", "setting": "[6]; HEK293 cells", "value": "> 316", "unit": "µM"}
    ]},
    {"compound": "COc1cc2ncnc(Nc3ccc(O)cc3)c2cc1OC", "note": "[Compound J20, 4-[(6,7-dimethoxy-4-quinazolinyl)amino]-phenol]", "values": [
      {"measurement": "CC50 at 48 h", "setting": "[6]; HEK293 cells", "value": "> 316", "unit": "µM"}
    ]},
    {"compound": "Cl.Cl.Fc1cc(-c2cccc3ncc(-c4cnn(C5CCNCC5)c4)nc23)cc(F)c1CN1CCOCC1", "note": "[Compound J21, 4-[[2,6-difluoro-4-[3-(1-piperidin-4-ylpyrazol-4-yl)quinoxalin-5-yl]phenyl]methyl]morpholine; dihydrochloride]", "values": [
      {"measurement": "CC50 at 48 h", "setting": "[6]", "value": 38.9, "unit": "µM"}
    ]},
    {"compound": "CN1C/C=C/CCOc2cccc(c2)-c2ccnc(n2)Nc2cccc(c2)C1", "note": "[Compound J23, 20-oxa-5,7,14,27-tetraazatetracyclo[19.3.1.12,6.18, 12]heptacosa-1(25),2,4,6(27),8,10,12(26),16,21,23-decane,14-methyl-]", "values": [
      {"measurement": "CC50 at 48 h", "setting": "[5]", "value": 35.5, "unit": "µM"},
      {"measurement": "CC50 at 48 h", "setting": "[7]", "value": 7.94, "unit": "µM"},
      {"measurement": "CC50 at 48 h", "setting": "[6]; HEK293 cells", "value": 52.5, "unit": "µM"}
    ]},
    {"compound": "CCC[C@H](NC(=O)/C(C#N)=C/c1cccc(Br)n1)c1ccccc1", "note": "[Compound J25, (2E)-3-(6-bromo-2-pyridinyl)-2-cyano-N-[1S-phenylbutyl]-2-propenamide]", "values": [
      {"measurement": "cell viability", "setting": "[1]; 50 μM", "value": "significantly reduced"},
      {"measurement": "anti-influenza virus effect", "setting": "influenza virus", "value": "had an anti-influenza virus effect"},
      {"measurement": "CC50 (50% cytotoxicity concentration)", "setting": "HEK293 cells", "value": "3.69 log10, nM"}
    ]},
    {"compound": "O=c1c(-c2ccc(O)cc2)coc2cc(O)cc(O)c12", "note": "[Genistein]", "values": [
      {"measurement": "anti-influenza virus effect", "setting": "influenza virus", "value": "had an anti-influenza virus effect"}
    ]},
    {"compound": "Fc1cc(F)c2c(c1)C1C=CCC1C(c1cccnc1)N2", "note": "(centres unmarked) [Golgicide A]", "values": [
      {"measurement": "toxicity to host cells", "setting": "[1]; summary of Example 2", "value": "relatively low toxicity to host cells"},
      {"measurement": "anti-influenza virus effect", "setting": "influenza virus", "value": "had an anti-influenza virus effect"},
      {"measurement": "effect on virus titer", "setting": "influenza virus", "value": "significantly reduced a virus titer"}
    ]},
    {"compound": "O=C1/C(=C/c2ccc(O)c(Br)c2)CCC/C1=C\\c1ccc(O)c(Br)c1", "note": "[Histone acetyltransferase inhibitor II]", "values": [
      {"measurement": "anti-influenza virus effect", "setting": "influenza virus", "value": "had an anti-influenza virus effect"}
    ]}
  ]
}
